Reference: ChEMBL document CHEMBL3244164, “Synthesis and analgesic activity of 1,3-dihydro-3-(substituted phenyl)imidazo[4,5-b]pyridin-2-ones and 3-(substituted phenyl)-1,2,3-triazolo[4,5-b]pyridines” (J Med Chem, 1978)
Calls of active or inactive are those of the source.

Tests used:
[1] = system: Rattus norvegicus; experiment: Analgesic activity in Sprague-Dawley rat brewer's yeast treated foot assessed as response threshold at 16 to 32 mg/kg, po; format: functional; conditions: dose mg/kg 16-32
[2] = system: Rattus norvegicus; experiment: Analgesic activity in Sprague-Dawley rat normal foot assessed as response threshold at 32 mg/kg, po; format: functional
[3] = system: Rattus norvegicus; experiment: Analgesic activity in Sprague-Dawley rat assessed as increase in mean reaction time at 30 mg/kg, po after 1 hr relative to control; format: functional
[4] = system: Rattus norvegicus; experiment: Analgesic activity in Sprague-Dawley rat assessed as increase in mean reaction time at 30 mg/kg, po after 2 hrs relative to control; format: functional
[5] = system: Rattus norvegicus; experiment: Analgesic activity in Sprague-Dawley rat assessed as increase in mean reaction time at 30 mg/kg, po after 3 hrs relative to control; format: functional
[6] = system: Rattus norvegicus; experiment: Analgesic activity in Sprague-Dawley rat assessed as increase in mean reaction time at 30 mg/kg, po after 4 hrs relative to control; format: functional
[7] = system: Rattus norvegicus; experiment: Analgesic activity in Sprague-Dawley rat assessed as increase in mean reaction time at 30 mg/kg, po after 5 hrs relative to control; format: functional
[8] = system: Rattus norvegicus; experiment: Analgesic activity in Sprague-Dawley rat assessed as increase in mean reaction time at 60 mg/kg, po after 1 hr relative to control; format: functional
[9] = system: Rattus norvegicus; experiment: Analgesic activity in Sprague-Dawley rat assessed as increase in mean reaction time at 60 mg/kg, po after 2 hrs relative to control; format: functional
[10] = system: Rattus norvegicus; experiment: Analgesic activity in Sprague-Dawley rat assessed as increase in mean reaction time at 60 mg/kg, po after 3 hrs relative to control; format: functional
[11] = system: Rattus norvegicus; experiment: Analgesic activity in Sprague-Dawley rat assessed as increase in mean reaction time at 60 mg/kg, po after 4 hrs relative to control; format: functional
[12] = system: Rattus norvegicus; experiment: Analgesic activity in Sprague-Dawley rat assessed as increase in mean reaction time at 60 mg/kg, po after 5 hrs relative to control; format: functional
[13] = system: Rattus norvegicus; experiment: Analgesic activity in Sprague-Dawley rat assessed as increase in mean reaction time at 120 mg/kg, po after 1 hr relative to control; format: functional
[14] = system: Rattus norvegicus; experiment: Analgesic activity in Sprague-Dawley rat assessed as increase in mean reaction time at 120 mg/kg, po after 2 hrs relative to control; format: functional
[15] = system: Rattus norvegicus; experiment: Analgesic activity in Sprague-Dawley rat assessed as increase in mean reaction time at 120 mg/kg, po after 3 hrs relative to control; format: functional
[16] = system: Rattus norvegicus; experiment: Analgesic activity in Sprague-Dawley rat assessed as increase in mean reaction time at 120 mg/kg, po after 4 hrs relative to control; format: functional
[17] = system: Rattus norvegicus; experiment: Analgesic activity in Sprague-Dawley rat assessed as increase in mean reaction time at 120 mg/kg, po after 5 hrs relative to control; format: functional
[18] = system: Rattus norvegicus; experiment: Analgesic activity in Sprague-Dawley rat assessed as increase in mean reaction time at 90 mg/kg, po after 1 hr relative to control; format: functional
[19] = system: Rattus norvegicus; experiment: Analgesic activity in Sprague-Dawley rat assessed as increase in mean reaction time at 90 mg/kg, po after 2 hrs relative to control; format: functional
[20] = system: Rattus norvegicus; experiment: Analgesic activity in Sprague-Dawley rat assessed as increase in mean reaction time at 90 mg/kg, po after 3 hrs relative to control; format: functional
[21] = system: Rattus norvegicus; experiment: Analgesic activity in Sprague-Dawley rat assessed as increase in mean reaction time at 90 mg/kg, po after 4 hrs relative to control; format: functional
[22] = system: Rattus norvegicus; experiment: Analgesic activity in Sprague-Dawley rat assessed as increase in mean reaction time at 90 mg/kg, po after 5 hrs relative to control; format: functional
[23] = system: Rattus norvegicus; experiment: Toxicity in Sprague-Dawley rat assessed as sedation at 90 mg/kg, po after 1 hr relative to control; format: organism-based; design: dose 90 mg/kg, route oral; conditions: in vivo
[24] = system: Rattus norvegicus; experiment: Toxicity in Sprague-Dawley rat assessed as sedation at 90 mg/kg, po after 2 hrs relative to control; format: organism-based; design: dose 90 mg/kg, route oral; conditions: in vivo
[25] = system: Rattus norvegicus; experiment: Toxicity in Sprague-Dawley rat assessed as sedation at 90 mg/kg, po after 3 hrs relative to control; format: organism-based; design: dose 90 mg/kg, route oral; conditions: in vivo
[26] = system: Rattus norvegicus; experiment: Toxicity in Sprague-Dawley rat assessed as sedation at 90 mg/kg, po after 4 hrs relative to control; format: organism-based; design: dose 90 mg/kg, route oral; conditions: in vivo
[27] = system: Rattus norvegicus; experiment: Toxicity in Sprague-Dawley rat assessed as sedation at 90 mg/kg, po after 5 hrs relative to control; format: organism-based; design: dose 90 mg/kg, route oral; conditions: in vivo
[28] = system: Mus musculus; experiment: Analgesic activity in naloxone treated mouse assessed as withdrawal latency at 12.5 to 75 mg/kg, po; format: functional, organism-based
[29] = system: Mus musculus; experiment: Analgesic activity in mouse assessed as withdrawal latency at 12.5 to 75 mg/kg, po by Haffner tail clamp method; format: functional, organism-based
[30] = system: Rattus norvegicus; experiment: Antiinflammatory activity in Sprague-Dawley rat assessed as inhibition of carrageenan-induced paw edema at 30 mg/kg, po; format: functional
[31] = system: Rattus norvegicus; experiment: Antiarthritic activity in Lewis rat assessed as inhibition of adjuvant-induced paw swelling at 50 mg/kg, po qd for 13 days measured on day 14; format: functional
[32] = system: Rattus norvegicus; experiment: Analgesic activity in Sprague-Dawley rat brewer's yeast treated foot assessed as response threshold at 8 mg/kg, po; format: functional
[33] = system: Rattus norvegicus; experiment: Analgesic activity in Sprague-Dawley rat normal foot assessed as response threshold at 8 to 16 mg/kg, po; format: functional; conditions: dose mg/kg 8-16
[34] = system: Rattus norvegicus; experiment: Analgesic activity in Sprague-Dawley rat assessed as increase in mean reaction time at 5 mg/kg, po after 1 hr relative to control; format: functional
[35] = system: Rattus norvegicus; experiment: Analgesic activity in Sprague-Dawley rat assessed as increase in mean reaction time at 5 mg/kg, po after 2 hrs relative to control; format: functional
[36] = system: Rattus norvegicus; experiment: Analgesic activity in Sprague-Dawley rat assessed as increase in mean reaction time at 5 mg/kg, po after 3 hrs relative to control; format: functional
[37] = system: Rattus norvegicus; experiment: Analgesic activity in Sprague-Dawley rat assessed as increase in mean reaction time at 5 mg/kg, po after 4 hrs relative to control; format: functional
[38] = system: Rattus norvegicus; experiment: Analgesic activity in Sprague-Dawley rat assessed as increase in mean reaction time at 5 mg/kg, po after 5 hrs relative to control; format: functional
[39] = system: Rattus norvegicus; experiment: Analgesic activity in Sprague-Dawley rat assessed as increase in mean reaction time at 10 mg/kg, po after 1 hr relative to control; format: functional
[40] = system: Rattus norvegicus; experiment: Analgesic activity in Sprague-Dawley rat assessed as increase in mean reaction time at 10 mg/kg, po after 2 hrs relative to control; format: functional
[41] = system: Rattus norvegicus; experiment: Analgesic activity in Sprague-Dawley rat assessed as increase in mean reaction time at 10 mg/kg, po after 3 hrs relative to control; format: functional
[42] = system: Rattus norvegicus; experiment: Analgesic activity in Sprague-Dawley rat assessed as increase in mean reaction time at 10 mg/kg, po after 4 hrs relative to control; format: functional
[43] = system: Rattus norvegicus; experiment: Analgesic activity in Sprague-Dawley rat assessed as increase in mean reaction time at 10 mg/kg, po after 5 hrs relative to control; format: functional
[44] = system: Rattus norvegicus; experiment: Analgesic activity in Sprague-Dawley rat assessed as increase in mean reaction time at 20 mg/kg, po after 1 hr relative to control; format: functional
[45] = system: Rattus norvegicus; experiment: Analgesic activity in Sprague-Dawley rat assessed as increase in mean reaction time at 20 mg/kg, po after 2 hrs relative to control; format: functional
[46] = system: Rattus norvegicus; experiment: Analgesic activity in Sprague-Dawley rat assessed as increase in mean reaction time at 20 mg/kg, po after 3 hrs relative to control; format: functional
[47] = system: Rattus norvegicus; experiment: Analgesic activity in Sprague-Dawley rat assessed as increase in mean reaction time at 20 mg/kg, po after 4 hrs relative to control; format: functional
[48] = system: Rattus norvegicus; experiment: Analgesic activity in Sprague-Dawley rat assessed as increase in mean reaction time at 20 mg/kg, po after 5 hrs relative to control; format: functional
[49] = system: Rattus norvegicus; experiment: Analgesic activity in Sprague-Dawley rat hyperesthesia model inflamed foot assessed as mean pain reaction threshold at 5 mg/kg, po after 1 hr; format: functional
[50] = system: Rattus norvegicus; experiment: Analgesic activity in Sprague-Dawley rat hyperesthesia model inflamed foot assessed as mean pain reaction threshold at 10 mg/kg, po after 1 hr; format: functional
[51] = system: Rattus norvegicus; experiment: Analgesic activity in Sprague-Dawley rat hyperesthesia model inflamed foot assessed as mean pain reaction threshold at 20 mg/kg, po after 1 hr; format: functional
[52] = system: Rattus norvegicus; experiment: Analgesic activity in Sprague-Dawley rat hyperesthesia model normal foot assessed as mean pain reaction threshold at 5 mg/kg, po after 1 hr; format: functional
[53] = system: Rattus norvegicus; experiment: Analgesic activity in Sprague-Dawley rat hyperesthesia model normal foot assessed as mean pain reaction threshold at 10 mg/kg, po after 1 hr; format: functional
[54] = system: Rattus norvegicus; experiment: Analgesic activity in Sprague-Dawley rat hyperesthesia model normal foot assessed as mean pain reaction threshold at 20 mg/kg, po after 1 hr; format: functional
[55] = system: Rattus norvegicus; experiment: Analgesic activity in naloxone treated Sprague-Dawley rat hyperesthesia model inflamed foot assessed as mean pain reaction threshold at 5 mg/kg, po after 1 hr; format: functional
[56] = system: Rattus norvegicus; experiment: Analgesic activity in naloxone treated Sprague-Dawley rat hyperesthesia model inflamed foot assessed as mean pain reaction threshold at 10 mg/kg, po after 1 hr; format: functional
[57] = system: Rattus norvegicus; experiment: Analgesic activity in naloxone treated Sprague-Dawley rat hyperesthesia model inflamed foot assessed as mean pain reaction threshold at 20 mg/kg, po after 1 hr; format: functional
[58] = system: Rattus norvegicus; experiment: Analgesic activity in naloxone treated Sprague-Dawley rat hyperesthesia model normal foot assessed as mean pain reaction threshold at 5 mg/kg, po after 1 hr; format: functional
[59] = system: Rattus norvegicus; experiment: Analgesic activity in naloxone treated Sprague-Dawley rat hyperesthesia model normal foot assessed as mean pain reaction threshold at 10 mg/kg, po after 1 hr; format: functional
[60] = system: Rattus norvegicus; experiment: Analgesic activity in naloxone treated Sprague-Dawley rat hyperesthesia model normal foot assessed as mean pain reaction threshold at 20 mg/kg, po after 1 hr; format: functional

Compound `CCC(=O)O[C@](Cc1ccccc1)(c1ccccc1)[C@H](C)CN(C)C` [PROPOXYPHENE] has an Activity [1] greater than 25 mm, an Activity [2] of 40 mm and a Time [3] of -3.2 s. The Time [4] was -2.6 s, the Time [5] was -4.4 s and the Time [6] was -0.8 s. It also gave a Time [7] of 0.1 s, a Time [8] of -3 s and a Time [9] of -0.8 s. For the same compound, the Time [10] was -2.4 s, the Time [11] was -0.8 s and the Time [12] was -1.1 s. The Time [13] was 41.9 s, the Time [14] was 30 s and the Time [15] was 24.5 s. For the same compound, the Time [16] was 15 s, the Time [17] was 3.6 s and the Time [18] was 40.6 s. It also gave a Time [19] of 42 s, a Time [20] of 40.7 s and a Time [21] of 36.4 s. The Time [22] was 10.5 s, the Activity [23] was “Toxic” and the Activity [24] was “Toxic”. For the same compound, the Activity [25] was “Toxic”, the Activity [26] was “Toxic” and the Activity [27] was “Toxic”. The Activity [28] was “inactive”, the Activity [29] was “Active” and the inhibition in vivo at 30 mg/kg [30] was 23%. For the same compound, the inhibition in vivo at 50 mg/kg [31] was 56.2%.
`C=CCn1c(=O)n(-c2ccc3c(c2)OCO3)c2ncccc21` gave an Activity [32] greater than 34 mm, an Activity [33] greater than 50 mm and a Time [34] of 0.1 s. It also gave a Time [35] of 3.8 s, a Time [36] of 5.3 s and a Time [37] of 3.9 s. The Time [38] was 0 s, the Time [39] was 8.8 s and the Time [40] was 7.3 s. For the same compound, the Time [41] was 11.6 s, the Time [42] was 7.1 s and the Time [43] was 6.2 s. The Time [44] was 13.5 s, the Time [45] was 21.7 s and the Time [46] was 24.4 s. The Time [47] was 28.1 s, the Time [48] was 24.5 s and the Activity [49] was 28.8 mmHg. It also gave an Activity [50] of 44.4 mmHg, an Activity [51] of 74.4 mmHg and an Activity [52] of 40.5 mmHg. For the same compound, the Activity [53] was 52.3 mmHg, the Activity [54] was 88.5 mmHg and the Activity [55] was 33.4 mmHg. It also gave an Activity [56] of 47.8 mmHg, an Activity [57] of 66.6 mmHg and an Activity [58] of 38.4 mmHg. For the same compound, the Activity [59] was 71.1 mmHg, the Activity [60] was 79.3 mmHg and the inhibition in vivo at 30 mg/kg [30] was 42%. For the same compound, the inhibition in vivo at 50 mg/kg [31] was 78.2%.
